The target of one test is T1, IGF-1 receptor (Homo sapiens, UniProt P08069).
T1 construct: immuno-precipitated with antibody to β subunit of IGF-1R and detected by Western blotting with anti-phospho-tyrosine antibody; endogenous in cells; host or cells: cultured dermal fibroblasts
The test can be described thus: IGF-1R phosphorylation (immuno-precipitation, anti-phospho-tyrosine Western blot). It counts as cell-based. The conditions noted are these: for levels of IGF-1R phosphorylation: 100 μM SA alone. How it is done:
At the end of each experiment cells were submerged in the lysis buffer containing a broad-range phosphatase inhibitor. The polyclonal antibodies recognizing either the β subunits of the IGF-IR or the β subunit of the insulin receptor were immobilized on separate sets of the IgG-bearing magnetic beads (Invitrogen Canada Inc, Burlington, ON) and then incubated for 1 hour with the aliquots of the cell lysates containing 400 μg of protein as described in the manufacturer protocol. The beads bearing the resulting immuno-precipitation products were re-suspended in sample buffer and the released proteins were resolved with SDS-PAGE and subjected to Western blotting with a monoclonal anti-p-Tyr (PY99) antibody from Santa Cruz Biotechnology Inc. (Santa Cruz, Calif.) and then with HRP-conjugated goat anti-mouse secondary antibody.
Background: In western blotting, separated proteins are transferred to a membrane and probed.

For test [1], the system named is normal dermal fibroblasts. The test can be described thus: Collagen fiber deposition (immuno-staining of collagen type I, morphometry). It counts as cell-based, human. As to conditions: 100 μM, 24-hour-old cultures, 5% FBS. How it is done: Cell Cultures—Fibroblasts initially grew out from the explants of these full thickness skin biopsies and were maintained. The primary cultures of fat-derived fibroblasts obtained from Thermogenesis (Rancho Cordova, Calif.) were also tested. In all described experiments, 2-4 passages of both kinds of fibroblasts were used. In experiments aimed at assessing ECM production, cells were initially plated at a concentration of 100,000 cells/dish. Confluent cultures were then maintained either in serum-free medium (DMEM) or in medium supplemented with 5% FBS in the presence of different reagents that were added 1 hour before treatments with SA.
Immuno-staining—All cultures maintained in the presence and absence of indicated reagents were either fixed in cold 100% methanol at −20° C. (for detection of elastin) or in 4% paraformaldehyde at room temperature (for detection of collagen I). The multiple parallel cultures were then incubated with 10 μg/ml of polyclonal antibody to tropoelastin (Elastin Products, Owensville, Mich.), or polyclonal antibody to collagen type I (Chemicon, Temecula, Calif.). Cultures were then incubated with the respective fluorescein-conjugated goat anti-rabbit, goat anti-mouse, or rabbit anti-goat secondary antibodies. Nuclei were counterstained with propidium iodide (Sigma, Sigma, St. Louis, Mo.). All of the cultures were then examined with a Nikon Eclipse E1000 microscope attached to a cooled CCD camera (QImaging, Retiga EX) and analyzed by the computer-generated morphometric analysis system (Image-Pro Plus software, Media Cybernetics, Silver Springs, Md.) as previously described.

The next test has as its system normal skin explants. The test can be described thus: Organ culture of skin explants (Movat pentachrome morphometry, insoluble elastin). It counts as cell-based, human. The conditions noted are these: 200 μM, 10-day-long daily treatment. On the procedure: Organ culture of skin explants—Fragments of normal skin, stretch-marked skin and dermal scars collected during […] 5% FBS, in the presence or absence of 200 μM SA alone or in combination with 200 μM DMOG as described in figure legends. The parallel quadruplicate explants from each experimental group were additionally maintained in the presence 2 μCi of [3H]-valine/ml and then subjected to the assay of insoluble elastin. The parallel explants from each experimental groups were also evaluated after pentachrome Movat's staining which allows for clear marking of elastic fibers. In each experimental group, 50 sections derived from quadruplicate explants were analyzed.

Test [2] concerns intracellular tropoelastin. Kind of test: Western blot of intracellular tropoelastin. It counts as cell-based, human. The conditions noted are these: 50-200 μM, 20-hour-old cultures, 5% FBS. How it is done: Western Blots—At the end of indicated experiments, cells were lysed with NP-40 buffer containing a cocktail of broad spectrum inhibitors of proteinases and phosphatases. The 50 μg aliquots of protein extract were then resolved by SDS-PAGE gel (4-12% gradient) in reducing conditions and analyzed by Western blot with antibodies indicated in figure legends, as previously described. Initial blots were also re-probed with monoclonal anti-β-actin antibody (Cell Signaling Technology Inc., Danvers, Mass.) to confirm the equal protein loading. The degree of expression was measured by densitometry.

The next test deals with explants of dermal scars. Kind of test: Organ culture of skin explants (histochemistry, insoluble elastin). It counts as cell-based, human. The conditions noted are these: 200 μM SA. On the procedure:
Organ culture of skin explants—Fragments of normal skin, stretch-marked skin and dermal scars collected during plastic surgery procedures were cut into multiple 4 mm2 pieces and maintained for 7 days in DMEM medium containing 5% FBS, […] The parallel quadruplicate explants from each experimental group were additionally maintained in the presence 2 μCi of [3H]-valine/ml and then subjected to the assay of insoluble elastin. The parallel explants from each experimental groups were also evaluated after pentachrome Movat's staining which allows for clear marking of elastic fibers. In each experimental group, 50 sections derived from quadruplicate explants were analyzed.

SMILES strings stand for the structures. Entries after “also recorded” stand apart in the source; their conditions may differ.

T1 sequence (P08069 741-1367 limits assumed): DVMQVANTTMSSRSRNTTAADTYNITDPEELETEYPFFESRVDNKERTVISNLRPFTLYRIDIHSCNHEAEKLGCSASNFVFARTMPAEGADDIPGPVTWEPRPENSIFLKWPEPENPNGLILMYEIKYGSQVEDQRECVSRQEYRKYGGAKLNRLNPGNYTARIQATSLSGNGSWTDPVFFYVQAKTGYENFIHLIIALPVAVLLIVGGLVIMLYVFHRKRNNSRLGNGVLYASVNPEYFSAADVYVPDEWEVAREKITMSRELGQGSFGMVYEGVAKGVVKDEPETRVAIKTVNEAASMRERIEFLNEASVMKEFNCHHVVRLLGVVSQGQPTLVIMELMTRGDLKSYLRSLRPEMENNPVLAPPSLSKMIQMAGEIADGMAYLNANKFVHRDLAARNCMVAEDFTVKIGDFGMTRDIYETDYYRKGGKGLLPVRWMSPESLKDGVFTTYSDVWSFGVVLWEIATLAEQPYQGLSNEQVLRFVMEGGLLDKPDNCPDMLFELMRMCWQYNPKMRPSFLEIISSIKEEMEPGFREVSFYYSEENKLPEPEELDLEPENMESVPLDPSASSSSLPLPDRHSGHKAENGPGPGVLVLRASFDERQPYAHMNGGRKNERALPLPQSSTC
T1 sequence (P08069 31-736 partner limits assumed): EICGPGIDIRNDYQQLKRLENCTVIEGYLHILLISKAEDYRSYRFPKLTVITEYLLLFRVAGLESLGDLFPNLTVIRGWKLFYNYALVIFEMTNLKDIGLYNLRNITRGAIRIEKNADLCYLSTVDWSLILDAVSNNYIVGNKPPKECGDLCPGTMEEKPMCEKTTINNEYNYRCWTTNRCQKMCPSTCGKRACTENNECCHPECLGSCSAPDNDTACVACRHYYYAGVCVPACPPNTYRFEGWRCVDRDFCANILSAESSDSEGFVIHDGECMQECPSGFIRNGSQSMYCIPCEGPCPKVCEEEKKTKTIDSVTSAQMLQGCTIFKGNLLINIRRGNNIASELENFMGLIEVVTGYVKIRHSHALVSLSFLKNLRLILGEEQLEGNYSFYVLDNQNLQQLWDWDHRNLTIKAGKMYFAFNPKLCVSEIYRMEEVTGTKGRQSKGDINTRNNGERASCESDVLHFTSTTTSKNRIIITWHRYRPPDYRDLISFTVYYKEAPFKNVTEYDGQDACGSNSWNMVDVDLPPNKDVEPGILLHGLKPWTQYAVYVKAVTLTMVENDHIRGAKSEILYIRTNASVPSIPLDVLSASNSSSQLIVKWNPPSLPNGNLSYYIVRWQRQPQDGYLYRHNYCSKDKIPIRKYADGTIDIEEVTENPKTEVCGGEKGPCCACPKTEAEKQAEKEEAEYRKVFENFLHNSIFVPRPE

Consider `O=C1O[C@H]([C@@H](O)CO)C([O-])=C1O.[Na+]` [SA, (+)-sodium L-ascorbate], for which the “levels of IGF-1R phosphorylation” value is listed as “remarkably enhanced levels of IGF-1R phosphorylation; also recorded: enhances the level of phosphorylation of the IGF-1R” at IGF-1 receptor (medium with FBS) and “did not reveal any increase in IGF-1R phosphorylation” on IGF-1 receptor (serum-free medium). In addition, the “levels of IGF-1-induced IGF-1R phosphorylation” value on IGF-1 receptor (100 μM SA plus 50 ng/ml IGF-1, both tested media) is recorded as “significantly enhanced the levels of phosphorylated IGF-IR; also recorded: enhances levels of IGF-1-induced IGF-IR phosphorylation in both tested media”. Moreover, the “deposition of immuno-detected collagen fibers” value in test [1] is reported as “more potent up-regulation in the deposition of immuno-detected collagen fibers than 100 μM AA; also recorded: more potent upregulation in collagen fibers deposition than 100 μM AA”. The “deposition of new elastic fibers” value in the test on normal skin explants is “enhanced deposition of new elastic fibers”. Further, the “levels of newly synthesized tropoelastin” value in test [2] is “increase in the levels of newly synthesized tropoelastin”. In addition, the “production of new elastic fibers” value in the test with explants of dermal scars is “initiated production of new elastic fibers”.

The record behind these values is patent US20130184337A1, “SODIUM ASCORBATE STIMULATION OF ELASTOGENESIS” (THE HOSPITAL FOR SICK CHILDREN, priority 2012, published 2013).
